Measurements: US20050143453A1, “Selective preventing and therapeutic agents for progressive lesion after organic damage” (priority 2000, published 2005)
Read-outs that look alike come from different tables or passages of the source.

What was measured:
[1] = Acute and chronic toxicity tests (Test Example 5); format: in vivo; details: subcutaneously 90 mg/kg/day for ten days
Experimental: Acute and Chronic Toxicity Tests
Toxicity test of benzyl 2-chloro-5-oxotetrahydrofuran-2-carboxylate represented by the formula (6-1) manufactured in Example 8 and ethyl 2-ketoglutarate represented by the formula (9-1) was carried out.

[2] = system: induction of effector macrophage by contact of human PBMC with lipopolysaccharide; assay: SPFC production by LPS stimulation (Test Example 1); format: cell-based
[3] = system: lesion of tubulointerstitial tissue / glomerulus; assay: Suppression of renal lesion in vivo by active metabolites (model not stated)
[4] = system: induction of effector macrophage by contact of human PBMC with mitomycin-treated human PBMC (allo-MLC); assay: SPFC production by allo-MLC stimulation (Test Example 2); format: cell-based

Compound: CCOC(=O)C(=O)CCC(=O)O [(9-1), ethyl 2-ketoglutarate]
- toxicity finding [1]: an increase in weights of the liver and the spleen in a light degree
- IC50 ([2]; Table 5, read-out: Inhibiting Concentration for SPEC Production by LPS Stimulation (μM: IC50)): > 1 µM
- IC50 ([2]; human PBMC with LPS 80 μg/ml, incubated 6 days, Table 1, read-out: SPFC Production Inhibiting Concentration by LPS Stimulation (μM: IC50)): > 1 µM
- suppression of lesion in tubulointerstitial tissue in vivo [3]: shows an activity for suppressing
- IC50 ([4]; Table 5, read-out: Inhibiting Concentration for SPEC Production by allo-MLC Stimulation (μM: IC50)): 0.01 µM
- IC50 ([4]; human PBMC with mitomycin-treated human PBMC, incubated 6 days, Table 1, read-out: SPFC Production Inhibiting Concentration by all-MLC Stimulation (μM: IC50)): 0.01 µM
- Functional Classification ([4]; selectivity allo-MLC versus LPS stimulation, Table 1): Group I
